Measured values taken from patent US5681964A, “Permeable, non-irritating prodrugs of nonsteroidal and steroidal agents” (University of Kentucky Research Foundation, priority 1994, dated 1997).
In brackets after ≈: the same amount, converted by molar mass. Like-named read-outs stand apart in the source and are kept apart here.

What was measured:
cornea epithelium = assay: differential scanning calorimetry of cornea epithelium of treated enucleated albino rabbit eyes
Experimental: The reduced cornea damage by polyethylene glycol flurbiprofenate and bis-flurbiprofenate prodrugs in albino rabbit eyes was assessed by differential scanning calorimetry. Tests were conducted to investigate the effects of flurbiprofen and the polyethylene glycol flurbiprofen ester and the diester prodrugs on the cornea epithelium. […] The effects of these drugs on the molecular structure of the cornea epithelium were assessed by differential scanning calorimetry. Fresh enucleated albino rabbit eyes were treated in solutions and also in suspensions of flurbiprofen and also in solutions and suspensions of the polyethylene glycol esters and diesters of flurbiprofen in isotonic glutathione buffered ringer solution for 10 minutes. The cornea epithelium was then scraped from the corneas and immediately analyzed by differential scanning calorimetry over the range of 40°-110° C.
Whenever a normal rabbit's cornea epithelium was analyzed a large endothermic transition at 64°±2° C. was observed. It has been established by previous work that this particular peak which was observed was due to a lipid.backslash.protein phase transition.

[1] = t1/2 in PB (7.4) (Table 1); assay type: physicochemical; details: for t1/2 in PB (7.4): result in words; for half-life: pH 7.4
rabbit eye = assay: irritancy in the rabbit eye, daily drops for seven days; assay type: in vivo; details: for degree of irritation to the cornea as compared to flurbiprofen in the acid form: 25 microliters (monoester, flurbiprofen) or 30 microliters (diester) into each eye daily, seven days, slit lamp, electron microscopy; for conversion into the flurbiprofen acid form during transport into the eye: aqueous humor and vitreous humor after seven days
Experimental: Another experiment was performed with tetraethylene glycol flurbiprofenate and tetraethylene glycol bis-flurbiprofenate to determine the irritancy of these prodrugs in the rabbit eye.
25 microliters of tetraethylene flurbiprofenate were dropped into each eye of two rabbits each day for seven days. Also, 30 microliters of tetraethylene glycol bis-flurbiprofenate was dropped into each eye of two rabbits each day for 7 days. A control using 25 microliters of flurbiprofen was dropped into each eye of two rabbits for seven days. Each morning the rabbit's eyes were examined by slit lamp for evidence of cornea damage and irritation. After seven days the animals were sacrificed and samples of the aqueous humor and vitreous humor were obtained for analysis of flurbiprofen and a flurbiprofen ester. The eyes were also examined by electron microscopy. […] The test was repeated using 10 microliters of each of the substances each day for seven days with similar results.

t1/2 in serum (Table 1) = assay type: in vitro ADME
Solubility (Table 1) = assay type: physicochemical
[2] = animal and human experiments; cited from earlier work
Salmonella = details: Ames type assays and chronic exposure studies; cited from earlier work
skin = details: cited from earlier work
cornea = details: in vitro; cited from earlier work
[3] = applied for treatment of inflammation; cited from earlier work
[4] = man; cited from earlier work
[5] = PB (7.4), read-out: t1/2 in PB (7.4) (converted)

Row | t1/2 in PB (7.4) ([1]; PB (7.4)) | half-life (t1/2 in serum (Table 1); read-out: t1/2 in serum) | solubility (Solubility (Table 1); read-out: Solubility) | Compound | further results
1 |  |  |  | benzalkonium chloride | intensity of the phase transition peak of cornea epithelium by DSC (cornea epithelium; compounds known to damage the cornea): greatly reduce the intensity of this observed peak
2 | low solubility | 3.67 h | < 0.1 µg/mL | CC(C(=O)OCCOCCOCCOCCOC(=O)C(C)c1ccc(-c2ccccc2)c(F)c1)c1ccc(-c2ccccc2)c(F)c1 (stereo not drawn) [Compound G-202.2, tetraethylene glycol bis-2-(2-fluoro-4-biphenylyl)propionate] | degree of irritation to the cornea as compared to flurbiprofen in the acid form (rabbit eye): significantly reduced; conversion into the flurbiprofen acid form during transport into the eye (rabbit eye): converted into the flurbiprofen acid form during transport into the eye
3 |  | 0.533 h | 228 ± 5 µg/mL (≈ 542 µM) | CC(C(=O)OCCOCCOCCOCCO)c1ccc(-c2ccccc2)c(F)c1 (stereo not drawn) [Compound G-202.1, tetraethylene glycol 2-(2-fluoro-4-biphenylyl)propionate] | half-life [1, 5]: 144 h; degree of irritation to the cornea as compared to flurbiprofen in the acid form (rabbit eye): significantly reduced; conversion into the flurbiprofen acid form during transport into the eye (rabbit eye): converted into the flurbiprofen acid form during transport into the eye
4 |  | 0.967 h | 553 ± 27 µg/mL (≈ 1740 µM) | COc1ccc2cc(C(C)C(=O)OCCOCCO)ccc2c1 (stereo not drawn) [Compound G-195.1] | half-life [1, 5]: 80 h
5 |  | 0.217 h | 943 ± 25 µg/mL (≈ 2600 µM) | COc1ccc2cc(C(C)C(=O)OCCOCCOCCO)ccc2c1 (stereo not drawn) [Compound G-192.1] | half-life [1, 5]: 230 h
6 |  |  |  | CC1(C)O[C@@H]2C[C@H]3[C@@H]4CCC5=CC(=O)C=C[C@]5(C)[C@@]4(F)[C@@H](O)C[C@]3(C)[C@]2(C(=O)COC(=O)OCCOCCOCCOCCO)O1 [Compound G-196.1, carbonate linked ester of triamcinolone acetonide and tetraethylene glycol] | half-life ([1]; pb): 136 h; half-life (t1/2 in serum (Table 1)): 3.8 h; solubility (Solubility (Table 1)): 391 ± 49 µg/mL (≈ 597 µM)
7 | several days | 0.0617 h | 6430 ± 617 µg/mL (≈ 13000 µM) | COc1ccc2cc(C(C)C(=O)OCCOCCOCCOCCOCCOCCO)ccc2c1 (stereo not drawn) [Compound G-220.1] | 
8 |  |  |  | CN1CCCC1=O [N-methyl-2-pyrrolidone] | irritation or sensitization potential [2]: very little irritation or sensitization potential; toxicity (Salmonella): have not revealed any significant toxicity; penetration enhancement (skin): effective penetration enhancer
9 | very slow | 0.433 h | < 0.1 µg/mL | COc1ccc2cc(C(C)C(=O)OCCOCCOCCOCCOC(=O)C(C)c3ccc4cc(OC)ccc4c3)ccc2c1 (stereo not drawn) [Compound G-219.2, diester of naproxen and tetraethylene glycol] | 
10 |  |  |  | CC(C(=O)O)c1ccc(-c2ccccc2)c(F)c1 (stereo not drawn) [flurbiprofen, 2(2-fluoro-4-biphenylyl)propionic acid] | cornea barrier function (cornea): impairs cornea barrier function in vitro; local irritation [3]: produces local irritation; irritation [4]: irritating in man; normal protein/lipid structure of cornea epithelium (cornea epithelium): substantially total breakdown of the normal protein/lipid structure
11 |  |  |  | CC1(C)O[C@@H]2C[C@H]3[C@@H]4CCC5=CC(=O)C=C[C@]5(C)[C@@]4(F)[C@@H](O)C[C@]3(C)[C@]2(C(=O)COC(=O)OCCOCCO)O1 [Compound G-197.1, carbonate linked ester of triamcinolone acetonide and diethylene glycol] | half-life ([1]; pb): 101 h; half-life (t1/2 in serum (Table 1)): 0.167 h; solubility (Solubility (Table 1)): 74 ± 3 µg/mL (≈ 131 µM)
12 |  | 0.0833 h | 1120 ± 31 µg/mL (≈ 2740 µM) | COc1ccc2cc(C(C)C(=O)OCCOCCOCCOCCO)ccc2c1 (stereo not drawn) [Compound G-167, monoester of naproxen and tetraethylene glycol] | half-life [1, 5]: 300 h
13 |  | 0.75 h | 135 ± 4 µg/mL (≈ 359 µM) | CC(C(=O)OCCOCCOCCO)c1ccc(-c2ccccc2)c(F)c1 (stereo not drawn) [Compound G-60] | half-life [1, 5]: 175 h
14 | low solubility | 1.25 h | < 0.1 µg/mL | COc1ccc2cc(C(C)C(=O)OCCOCCOC(=O)C(C)c3ccc4cc(OC)ccc4c3)ccc2c1 (stereo not drawn) [Compound G-195.2, diester of naproxen and diethylene glycol] | 
15 | several days | 0.367 h | 445 ± 34 µg/mL (≈ 875 µM) | CC(C(=O)OCCOCCOCCOCCOCCOCCO)c1ccc(-c2ccccc2)c(F)c1 (stereo not drawn) [TC-242.2, hexaethylene glycol flurbiprofenate] | 
16 | very slow | 0.833 h | < 0.1 µg/mL | COc1ccc2cc(C(C)C(=O)OCCOCCOCCOCCOCCOCCOC(=O)C(C)c3ccc4cc(OC)ccc4c3)ccc2c1 (stereo not drawn) [Compound G-220.2, diester of naproxen and hexaethylene glycol] | 
17 | low solubility | 0.833 h | < 0.1 µg/mL | COc1ccc2cc(C(C)C(=O)OCCOCCOCCOC(=O)C(C)c3ccc4cc(OC)ccc4c3)ccc2c1 (stereo not drawn) [Compound G-192.2] | 
18 | very slow | 2.78 h | < 0.1 µg/mL | CC(C(=O)OCCOCCOCCOCCOCCOCCOC(=O)C(C)c1ccc(-c2ccccc2)c(F)c1)c1ccc(-c2ccccc2)c(F)c1 (stereo not drawn) [TC-242.1, hexaethylene glycol bis-flurbiprofenate] | 
